Source: ChEMBL document CHEMBL1201862, “PubChem BioAssay data set” (2004)
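Values below derive from 48-hour exposures of cells grown in 96-well plates, with endpoints linearly interpolated between the two concentrations bracketing the appropriate inhibition level. GI50 marks 50% less growth.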 Calls of active or inactive are those of the source. Cut-off read from the data, not from the text of the source: active = GI50 up to about 1.1 µM and inactive = higher.

Legend:
Experiment in all cases: NCI-60 cell line screen, 48 h
HCT-15 = test system: HCT-15
HL-60 = test system: HL-60
IGROV-1 = test system: IGROV-1
MDA-MB-435 = test system: MDA-MB-435
MOLT-4 = test system: MOLT-4
Malme-3M = test system: Malme-3M
NCI-H226 = test system: NCI-H226
OVCAR-5 = test system: OVCAR-5
OVCAR-8 = test system: OVCAR-8
PC-3 = test system: PC-3
SF-295 = test system: SF-295
SF-539 = test system: SF-539
SK-MEL-2 = test system: SK-MEL-2
SR = test system: SR
SW-620 = test system: SW-620
T47D = test system: T47D
UO-31 = test system: UO-31
DU-145 = test system: DU-145
SN12C = test system: SN12C
SNB-75 = test system: SNB-75

Measured: GI50

O=C1CC(c2ccccc2)n2c(nc3ccccc32)N1 (centres undefined)
46.8 µM: HCT-15
inactive: HL-60 16.8 µM | IGROV-1 47.4 µM | MDA-MB-435 37.8 µM | MOLT-4 65.8 µM | Malme-3M 38.1 µM | NCI-H226 > 100 µM | OVCAR-5 > 100 µM | OVCAR-8 > 100 µM | PC-3 > 100 µM | SF-295 > 100 µM | SF-539 > 100 µM | SK-MEL-2 18.9 µM | SR 36.2 µM | SW-620 51.9 µM | T47D 25.4 µM | UO-31 > 100 µM

CC[C@@]1(O)C(=O)OCc2c1cc1n(c2=O)Cc2c-1nc1ccccc1c2/C=N\NC(=O)C(N)Cc1ccc(O)cc1 (some centres undefined)
active: DU-145 0.331 µM | HL-60 0.146 µM | MOLT-4 0.0658 µM | NCI-H226 0.15 µM | OVCAR-8 0.809 µM | SF-295 0.46 µM | SF-539 0.0731 µM | SN12C 0.228 µM | SNB-75 0.415 µM | SR < 0.0188 µM | T47D 0.285 µM | UO-31 0.619 µM
4.32 µM: HCT-15
inactive: IGROV-1 2.52 µM | MDA-MB-435 1.61 µM | Malme-3M 1.35 µM | SW-620 1.52 µM

CSCCCNC(=O)[C@H](CSC)NC(=O)c1csc(CCNC(=O)[C@@H](NSc2ccccc2[N+](=O)[O-])C(C)O)n1 (some centres undefined)
> 100 µM: HCT-15
inactive: DU-145 > 100 µM | HL-60 > 100 µM | IGROV-1 > 100 µM | MDA-MB-435 > 100 µM | MOLT-4 > 100 µM | Malme-3M > 100 µM | NCI-H226 > 100 µM | OVCAR-5 > 100 µM | OVCAR-8 > 100 µM | PC-3 > 100 µM | SF-295 > 100 µM | SF-539 > 100 µM | SK-MEL-2 > 100 µM | SN12C > 100 µM | SNB-75 28.2 µM | SR > 100 µM | SW-620 > 100 µM | UO-31 > 100 µM

COc1ccc2nc(-c3ccc(OC(=O)N(C)C)cc3)cn2c1
inactive: HL-60 > 100 µM | IGROV-1 > 100 µM | MDA-MB-435 > 100 µM | MOLT-4 82 µM | Malme-3M > 100 µM | NCI-H226 > 100 µM | OVCAR-5 > 100 µM | OVCAR-8 > 100 µM | PC-3 > 100 µM | SF-295 85.5 µM | SK-MEL-2 > 100 µM | SN12C > 100 µM | SNB-75 > 100 µM | SR 38.9 µM | SW-620 > 100 µM | T47D 71.4 µM

Cc1nc2c(=O)[nH]c3ccc(Cl)cc3c2o1
inactive: IGROV-1 89.7 µM | MDA-MB-435 > 100 µM | MOLT-4 > 100 µM | Malme-3M > 100 µM | NCI-H226 > 100 µM | OVCAR-5 > 100 µM | OVCAR-8 > 100 µM | PC-3 > 100 µM | SF-295 > 100 µM | SF-539 > 100 µM | SK-MEL-2 > 100 µM | SN12C > 100 µM | SNB-75 > 100 µM | SR > 100 µM | SW-620 > 100 µM | T47D > 100 µM | UO-31 > 100 µM
> 100 µM: HCT-15

CC1C2(C)OC(=N)C(C#N)(C(c3cccc([N+](=O)[O-])c3)O2)C1(C#N)C#N (centres undefined)
inactive: DU-145 28.4 µM | HL-60 13.8 µM | IGROV-1 42.6 µM | MOLT-4 36.3 µM | Malme-3M 26.2 µM | NCI-H226 > 100 µM | OVCAR-5 34.7 µM | OVCAR-8 29.6 µM | PC-3 30.9 µM | SF-295 84.7 µM | SF-539 18.9 µM | SK-MEL-2 19.9 µM | SN12C 14.9 µM | SNB-75 40.6 µM | SW-620 12.7 µM | T47D 13.7 µM | UO-31 35.6 µM
